Tests used:
[1] = tested on: monoclonal antibody exposed on the surface of hybridoma cell line HB-8152
Protocol: The cell number of a confluent hybridoma culture was determined to be 1.6×10^6 per ml and aliquotes with approx. 0.5×10^6 hybridoma cells in 100 μl were used for each single experiment. The cells were washed in 100 μl phosphate buffered saline (PBS) buffer for 5 minutes to remove soluble antibody from the assay. Subsequently, the cells were incubated for 30 minutes in 100 μl PBS containing the theophylline-TAMRA conjugate at different concentrations: 0, 0.4, 2, 8, 16, 40, 200, 800 nM. […] The degree of fluorescence labelling of the hybridoma cells was determined for each single experiment in four independent measurements.

EGF receptor = molecular target: T1, EGF receptor (Homo sapiens, UniProt P00533); assay: FIDA competition assay, HCT membranes with TMR-EGF and competitor; conditions: binding normalized to absence of competitor, read-out: affinity (competition with TMR-EGF)
T1 construct: endogenous in cells; host or cells: HCT (human colon carcinoma tumor) cells, crude membranes
Protocol: Binding was determined by the method according to the present invention and was normalized to that in the absence of competitor.

Row | IC50 [1] [nM] | Ki (EGF receptor) [nM] | Molecule
1 | 250 | – | Cn1c(=O)c2[nH]cnc2n(C)c1=O [theophylline, 1,3-dimethylxanthine]
2 | – | 0.23 ± 0.02 | betacellulin: polypeptide growth factor with sequence identity with EGF, from R & D Systems
